Measurements taken from patent US20250340510A1, “Substituted Phenylbenzenesulfonamide Derivatives and Uses Thereof” (Nine Square Therapeutics Corporation, priority 2022, published 2025).

Assays:
TRPML1 = TRPML1 (Homo sapiens, UniProt Q9GZU1); test: Calcium flux in HEK293 overexpressing TRPML1 plasma membrane variant (FLIPR, Calcium 6 dye); type: cell-based; settings: HEK293/TRPML1-PM clone A5 cells; 4-parameter logistic fit; read-out: TRPML1 calcium flux (FLIPR) dose response: EC50
Method in brief: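 HEK293 clone expressing plasma-membrane-targeted TRPML1 (N- and C-terminal dileucine motifs deleted), loaded with Calcium 6 dye for 2 h at 37 °C in HBSS/20 mM HEPES pH 7.4. Fluorescence recorded 10 s baseline then 170 s after compound addition. Max-minus-min response over baseline fitted by 4-parameter logistic for EC50.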

TFEB = TFEB translocation assay in HeLa cells (nuclear to cytoplasmic TFEB ratio, high-content imaging); type: cell-based; settings: 90 mins incubation at 37° C., ratio of nuclear to cytoplasmic TFEB
Experimental: Example B2. TFEB Translocation Assay
Rabbit TFEB antibody, Cell Signaling Technology #4240S
PFA 16% MeOH-free, Election Microscopy Sciences #50-980-487
HCS CellMask Deep Red, ThermoFisher Scientific #H32721
Plates: Perkin Elmer Phenoplate #605730 black optically clear, tissue culture treated 384-well plate
Example B2.2 Method, Day 1: Cells Seeded in 384WP
Cells were seeded in the afternoon. The outer one row of the plate was not used to avoid outer well edge effects.
HeLa cells were detached using trypsin, and the cells were counted using a cell counter.
4000 HeLa cells were seeded per well in […] growth media (DMEM with 10% FBS, 1 mM sodium pyruvate and Pen-Strep).
Example B2.3 Method, Day 2: Assay with TRPML1 Compounds+Staining
Compounds were added to cells using a Tecan D300e dispenser.
Cells were incubated for 90 mins at 37° C. with the compounds (compound range: 80 nM-[…] (2× step dilution—8 dilution steps, 3 replicates per condition)
The cells were fixed by adding 16.5 μL of 16% PFA (4% final) and incubating for 15 min at room temperature.
The cells were washed with 3× in PBS-TX (PBS+0.1% Triton X-100)−1×100 μL followed by 2×50 μL.
The cells were blocked and permeabilized in 30 μL of blocking buffer (PBS-TX+5% goat serum) for 1 h.
The cells were incubated with TFEB antibody (1:200, CST 4240S) in 30 μL blocking buffer overnight at 4° C. The plates were kept damp to avoid evaporation.
Example B2.4 Method, Day 3: Staining+Imaging
The cells were washed 3× in PBS-TX—3×100 μL with a Biotek EL406 washer.
The cells were incubated with Goat anti-Rb Alexa-Fluor 488 (1:2000), cell mask (1:10,000) and Hoechst (1:10,000) in 30 μL blocking buffer for 1 h at room temperature. The solution was dispensed using a 5 μL peristaltic cassette (EL406).
The cells were washed 3× in PBS-TX—3×100 μL with a EL406 washer, then […] PBS was dispensed using a 5 μL peristaltic cassette (EL406).
The cells were imaged on an Operetta CLS High-content imaging system using a 20× water immersion objective (NA 1.0) the same day.
Image analysis was performed using Harmony V4.9 (Perkin Elmer). Briefly, nuclei were segmented from background-corrected images using Hoechst intensity, and cell body segmented using HCS CellMask DeepRed. A sliding parabola filter was applied to the AlexaFluor 488 channel (TFEB), before sum pixel intensity in the nuclear and cytoplasmic regions was calculated. A ratio of nuclear to cytoplasmic TFEB was used to define TFEB translocation from the cytosolic to nuclear compartment. The EC50 values derived by fitting the data to a sigmoidal dose response curve using Prism 9 (Graphpad).

Chain of TRPML1 (Q9GZU1 17-572 limits assumed): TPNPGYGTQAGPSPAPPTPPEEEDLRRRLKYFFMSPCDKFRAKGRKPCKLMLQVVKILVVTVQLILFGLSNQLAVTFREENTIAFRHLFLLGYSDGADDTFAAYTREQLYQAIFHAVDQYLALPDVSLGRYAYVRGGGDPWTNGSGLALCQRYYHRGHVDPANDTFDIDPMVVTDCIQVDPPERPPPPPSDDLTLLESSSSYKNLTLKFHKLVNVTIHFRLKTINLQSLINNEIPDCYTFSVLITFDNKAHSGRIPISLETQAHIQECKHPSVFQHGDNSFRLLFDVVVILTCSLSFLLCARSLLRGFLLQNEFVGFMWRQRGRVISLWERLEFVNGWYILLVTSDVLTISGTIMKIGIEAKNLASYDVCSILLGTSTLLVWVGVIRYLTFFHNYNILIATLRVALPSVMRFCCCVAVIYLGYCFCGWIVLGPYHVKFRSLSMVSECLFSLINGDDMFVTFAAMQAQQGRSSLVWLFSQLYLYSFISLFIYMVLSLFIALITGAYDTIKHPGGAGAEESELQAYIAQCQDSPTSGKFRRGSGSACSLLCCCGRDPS

SMILES | EC50 (TRPML1) | EC50 (TFEB; Homo sapiens, HeLa, 1.5 h) | EC50 (TFEB) | EC50 (TFEB; Homo sapiens, 1.5 h)
Cc1cccc(NS(=O)(=O)c2ccc(S(=O)(=O)N(C)C)cc2)c1N(C)C1CCCCC1 [Compound 98, N1-(2-(cyclohexyl(methyl)amino)-3-methylphenyl)-N4,N4-dimethylbenzene-1,4-disulfonamide] | 46.6 nM | 117 nM | – | –
CC(C)CN(C)c1c(Cl)cccc1NS(=O)(=O)c1ccc(S(=O)(=O)N(C)C)cc1 [Compound 76, N1-(3-chloro-2-(isobutyl(methyl)amino)phenyl)-N4,N4-dimethylbenzene-1,4-disulfonamide] | 521 nM | 330 nM | – | –
Cc1ccc(N(C)C2CCCCC2)c(NS(=O)(=O)c2ccc(S(=O)(=O)N(C)C)cc2)c1 [Compound 117, N1-(2-(cyclohexyl(methyl)amino)-5-methylphenyl)-N4,N4-dimethylbenzene-1,4-disulfonamide] | 353 nM | 83.7 nM | – | –
CN(C)S(=O)(=O)c1ccc(S(=O)(=O)Nc2ccccc2N(CC2COC2)C2CCCCC2)cc1 [Compound 84, N1-(2-(Cyclohexyl(oxetan-3-ylmethyl)amino)phenyl)-N4,N4-dimethylbenzene-1,4-disulfonamide] | 567 nM | 664 nM | – | –
CN(c1ccccc1NS(=O)(=O)c1ccc(S(=O)(=O)N(C)C)cc1)C1CCC(C)(C)C1 (centres unmarked) [Compound 20, N1-(2-((3,3-dimethylcyclopentyl)(methyl)amino)phenyl)-N4,N4-dimethylbenzene-1,4-disulfonamide] | 260 nM | 270 nM | – | –
CN(c1ccccc1NS(=O)(=O)c1ccc(S(=O)(=O)N(C)C)cc1)C1CCC(F)(F)C1 (centres unmarked) [Compound 99, N1-(2-((3,3-difluorocyclopentyl) (methyl)amino)phenyl)-N4,N4-dimethylbenzene-1,4-disulfonamide] | 433 nM | 573 nM | – | –
CN(C)S(=O)(=O)c1ccc(S(=O)(=O)Nc2ccccc2N(C)[C@H]2CC[C@H](C)CC2)cc1 [Compound 28, N1,N1-dimethyl-N4-(2-(methyl((1r,4r)-4-methylcyclohexyl)amino)phenyl)benzene-1,4-disulfonamide] | 350 nM | 1100 nM | – | –
CN(Cc1cncs1)c1c(Cl)cccc1NS(=O)(=O)c1ccc(S(=O)(=O)N(C)C)cc1 [Compound 73, N1-(3-chloro-2-(methyl(thiazol-5-ylmethyl)amino)phenyl)-N4,N4-dimethylbenzene-1,4-disulfonamide] | 996 nM | 4850 nM | – | –
CN(c1ccccc1NS(=O)(=O)c1ccc(S(=O)(=O)N(C)C)cc1)C1CCOC2(CCC2)C1 (centres unmarked) [Compound 87, N1,N1-dimethyl-N4-(2-(methyl(5-oxaspiro[3.5]nonan-8-yl)amino)phenyl)benzene-1,4-disulfonamide] | 823 nM | 674 nM | – | –
CN(c1ccccc1NS(=O)(=O)c1ccc(S(=O)(=O)N(C)C)cc1)C1CCOC(C)(C)C1 (centres unmarked) [Compound 111, N1-(2-((2,2-dimethyltetrahydro-2H-pyran-4-yl)(methyl)amino)phenyl)-N4,N4-dimethylbenzene-1,4-disulfonamide] | 812 nM | 3290 nM | – | –
CN(C)S(=O)(=O)c1ccc(S(=O)(=O)Nc2ccccc2N(CC(F)(F)F)C2CCCCC2)cc1 [Compound 81, N1-(2-(cyclohexyl(2,2,2-trifluoroethyl)amino)phenyl)-N4,N4-dimethylbenzene-1,4-disulfonamide] | 461 nM | 323 nM | – | –
CN(CC1(C)COC1)c1ccccc1NS(=O)(=O)c1ccc(S(=O)(=O)N(C)C)cc1 [Compound 49, N1,N1-dimethyl-N4-(2-(methyl((3-methyloxetan-3-yl)methyl)amino)phenyl)benzene-1,4-disulfonamide] | 1140 nM | – | – | 7970 nM

Second part, led by results:

EC50 (TRPML1) | EC50 (TFEB; Homo sapiens, HeLa, 1.5 h) | EC50 (TFEB) | SMILES | EC50 (TFEB; Homo sapiens, 1.5 h)
319 nM | 396 nM | – | CN(CC12CC(C)(C1)C2)c1ccccc1NS(=O)(=O)c1ccc(S(=O)(=O)N(C)C)cc1 [Compound 65, N1,N1-dimethyl-N4-(2-(methyl((3-methylbicyclo[1.1.1]pentan-1-yl)methyl)amino)phenyl)benzene-1,4-disulfonamide] | –
276 nM | 529 nM | – | CN(c1ccccc1NS(=O)(=O)c1ccc(S(=O)(=O)N(C)C)cc1)C1CCCCC1 [Compound 118, N1-(2-(cyclohexyl(methyl)amino)phenyl)-N4,N4-dimethylbenzene-1,4-disulfonamide] | –
290 nM | 4860 nM | – | CC(C)CCN(C)c1ccccc1NS(=O)(=O)c1ccc(S(=O)(=O)N(C)C)cc1 [Compound 6, N1-(2-(isopentyl(methyl)amino)phenyl)-N4,N4-dimethylbenzene-1,4-disulfonamide] | –
790 nM | 431 nM | – | CN(CC1CCCCO1)c1ccccc1NS(=O)(=O)c1ccc(S(=O)(=O)N(C)C)cc1 (centres unmarked) [Compound 108, N1,N1-dimethyl-N4-(2-(methyl((tetrahydro-2H-pyran-2-yl)methyl)amino)phenyl)benzene-1,4-disulfonamide] | –
1030 nM | 2230 nM | – | CN(Cc1cscn1)c1c(F)cccc1NS(=O)(=O)c1ccc(S(=O)(=O)N(C)C)cc1 [Compound 68, N1-(3-fluoro-2-(methyl(thiazol-4-ylmethyl)amino)phenyl)-N4,N4-dimethylbenzene-1,4-disulfonamide] | –
347 nM | 516 nM | – | CN(c1ccccc1NS(=O)(=O)c1ccc(S(=O)(=O)N(C)C)cc1)C1CCOC1(C)C (centres unmarked) [Compound 97, N1-(2-((2,2-dimethyltetrahydro-furan-3-yl)(methyl)amino)phenyl)-N4,N4-dimethylbenzene-1,4-disulfonamide] | –
670 nM | 1350 nM | – | CN(Cc1ccsc1)c1ccccc1NS(=O)(=O)c1ccc(S(=O)(=O)N(C)C)cc1 [Compound 13, N1,N1-dimethyl-N4-(2-(methyl(thiophen-3-ylmethyl)amino)phenyl)benzene-1,4-disulfonamide] | –
447 nM | 1000 nM | – | Cc1nc(CN(C)c2ccccc2NS(=O)(=O)c2ccc(S(=O)(=O)N(C)C)cc2)ccc1F [Compound 85, N1-(2-(((5-fluoro-6-methylpyridin-2-yl)methyl)(methyl)amino)phenyl)-N4,N4-dimethylbenzene-1,4-disulfonamide] | –
818 nM | 4040 nM | – | Cc1cccc(NS(=O)(=O)c2ccc(S(=O)(=O)N(C)C)cc2)c1N(C)Cc1cscn1 [Compound 71, N1,N1-dimethyl-N4-(3-methyl-2-(methyl(thiazol-4-ylmethyl)amino)phenyl)benzene-1,4-disulfonamide] | –
236 nM | 927 nM | – | CN(CC12CC(C1)C2)c1ccccc1NS(=O)(=O)c1ccc(S(=O)(=O)N(C)C)cc1 [Compound 66, N1-(2-((bicyclo[1.1.1]pentan-1-ylmethyl)(methyl)amino)phenyl)-N4,N4-dimethylbenzene-1,4-disulfonamide] | –
250 nM | 870 nM | – | CN(Cc1cncs1)c1ccccc1NS(=O)(=O)c1ccc(S(=O)(=O)N(C)C)cc1 [Compound 55, N1,N1-dimethyl-N4-(2-(methyl(thiazol-5-ylmethyl)amino)phenyl)benzene-1,4-disulfonamide] | –
274 nM | 1270 nM | 915 nM | CN(CC1(F)CC1)c1ccccc1NS(=O)(=O)c1ccc(S(=O)(=O)N(C)C)cc1 [Compound 95, N1-(2-(((1-fluorocyclopropyl)methyl)(methyl)amino)phenyl)-N4,N4-dimethylbenzene-1,4-disulfonamide] | –
371 nM | 464 nM | – | CN(CC1CCC1)c1ccccc1NS(=O)(=O)c1ccc(S(=O)(=O)N(C)C)cc1 [Compound 106, N1-(2-((cyclobutylmethyl)(methyl)amino)phenyl)-N4,N4-dimethylbenzene-1,4-disulfonamide] | –
420 nM | 540 nM | – | CN(CC1CCCC1)c1ccccc1NS(=O)(=O)c1ccc(S(=O)(=O)N(C)C)cc1 [Compound 25, N1-(2-((cyclopentylmethyl)(methyl)amino)phenyl)-N4,N4-dimethylbenzene-1,4-disulfonamide] | –
